Patent US10874743B2, “IRAK degraders and uses thereof” (Kymera Therapeutics, Inc., priority 2017, dated 2020)
“And” between values parts separate entries of the source, which are not always exact repeats. Equal entries are not always repeated. Where two headings read alike, the source gives them in different places.

Experiment: Pharmacokinetics in CD-1 mice (plasma concentrations, PK parameters)
Format: in vivo
Details: for AUC(0-t): read-out: AUC0-last; for MRT inf: read-out: MRT0-inf; for MRT last: read-out: MRT0-last; for Vd: read-out: Vdss
Procedure: Pharmacokinetics for I-127, I-172 and I-210 were determined in Sprague Dawley rats or CD-1 mice by dosing intravenous (IV), subcutaneous (SC) or per oral (PO) using facility SOPs and sampling plasma at required time points. Species, formulation, route of administration and time points samples are listed below for each compound.
Compounds were extracted from plasma, injected on reverse phase HPLC, eluted with a gradient from 5% to 95% acetonitrile in water and quantified by mass spectrometry with internal standard. Data are expressed in ng compound per mL of plasma.

[1] = CD-1, mouse, plasma, iv, 2 mg/kg, mouse (CD1) iv 2 mg/kg, Mean IV
[2] = CD-1, mouse, plasma, sc, 30 mg/kg, mouse (CD1) sc 30 mg/kg, Mean SC
[3] = CD-1, mouse, plasma, sc, 30 mg/kg, mouse (CD1) sc 30 mg/kg, individual M07-M09
[4] = mouse (CD1) iv 2 mg/kg, Mean IV
[5] = mouse (CD1) iv 2 mg/kg, individual M01-M03, 2 mg/kg
[6] = mouse (CD1) sc 30 mg/kg, individual M07-M09
[7] = mouse (CD1) sc 30 mg/kg, individual M07-M09, 30 mg/kg

concentration at 5 min (CD-1, mouse, plasma, iv, 2 mg/kg, mouse (CD1) iv 2 mg/kg, 5 min, Mean IV, read-out: concentrations): 1290 ng/mL
concentration at 0.5 h (CD-1, mouse, plasma, iv, 2 mg/kg, mouse (CD1) iv 2 mg/kg, 0.500 h, Mean IV, read-out: concentrations): 102 ng/mL
concentration at 1 h (CD-1, mouse, plasma, iv, 2 mg/kg, mouse (CD1) iv 2 mg/kg, 1.00 h, Mean IV, read-out: concentrations): 49.7 ng/mL
concentration at 2 h (CD-1, mouse, plasma, iv, 2 mg/kg, mouse (CD1) iv 2 mg/kg, 2.00 h, Mean IV, read-out: concentrations): 31.7 ng/mL
concentration at 4 h (CD-1, mouse, plasma, iv, 2 mg/kg, mouse (CD1) iv 2 mg/kg, 4.00 h, Mean IV, read-out: concentrations): 12.2 ng/mL
concentration at 6 h (CD-1, mouse, plasma, iv, 2 mg/kg, mouse (CD1) iv 2 mg/kg, 6.00 h, Mean IV, read-out: concentrations): 5.31 ng/mL
concentration at 24 h (CD-1, mouse, plasma, iv, 2 mg/kg, mouse (CD1) iv 2 mg/kg, 24.0 h, individual M01-M03, read-out: concentrations): 2.2 ng/mL
clearance [1]: 84.9 mL/min/kg
half-life [1]: 3.65 h
AUC(0-inf) (CD-1, mouse, plasma, iv, 2 mg/kg, mouse (CD1) iv 2 mg/kg, Mean IV, read-out: AUC0-inf): 511 ng·h/mL
AUC(0-t) [1]: 496 ng·h/mL
C0 (CD-1, mouse, plasma, iv, 2 mg/kg, mouse (CD1) iv 2 mg/kg, Mean IV, read-out: C0): 2160 ng/mL
MRT inf [1]: 1.54 h
MRT last [1]: 1.1 h
Vd [1]: 6.25 L/kg
Vd (CD-1, mouse, plasma, iv, 2 mg/kg, mouse (CD1) iv 2 mg/kg, individual M01-M03): 5.73 L/kg
AUC(0-t) [2]: 39.8 ng·h/mL
Cmax (CD-1, mouse, plasma, sc, 30 mg/kg, mouse (CD1) sc 30 mg/kg, Mean SC, read-out: Cmax): 2.91 ng/mL
MRT last [2]: 11.3 h
Tmax (CD-1, mouse, plasma, sc, 30 mg/kg, mouse (CD1) sc 30 mg/kg, Mean SC, read-out: Tmax): 2.67 h
half-life [3]: 39.2 h
AUC(0-inf) (CD-1, mouse, plasma, sc, 30 mg/kg, mouse (CD1) sc 30 mg/kg, individual M07-M09, read-out: AUC0-inf): 144 ng·h/mL
AUC(0-t) [3]: 33 ng·h/mL
MRT inf [3]: 54.2 h
MRT last [3]: 11.7 h
Tmax (CD-1, mouse, plasma, sc, 30 mg/kg, mouse (CD1) sc 30 mg/kg, individual M07-M09, read-out: Tmax): 2 h
bioavailability (CD-1, plasma, mouse (CD1) sc 30 mg/kg, Mean SC): 0.534%
concentrations (mouse (CD1) iv 2 mg/kg, 5 min, individual M01-M03, 2 mg/kg): 2310 ng/mL and 831 ng/mL and 738 ng/mL
concentrations (mouse (CD1) iv 2 mg/kg, 0.500 h, individual M01-M03, 2 mg/kg): 166 ng/mL and 58.7 ng/mL and 82.1 ng/mL
concentrations (mouse (CD1) iv 2 mg/kg, 1.00 h, individual M01-M03, 2 mg/kg): 91 ng/mL and 22.3 ng/mL and 35.8 ng/mL
concentrations (mouse (CD1) iv 2 mg/kg, 2.00 h, individual M01-M03, 2 mg/kg): 51.5 ng/mL and 12.7 ng/mL and 30.9 ng/mL
concentrations (mouse (CD1) iv 2 mg/kg, 4.00 h, individual M01-M03, 2 mg/kg): 18.6 ng/mL and 7.08 ng/mL and 10.9 ng/mL
concentrations (mouse (CD1) iv 2 mg/kg, 6.00 h, individual M01-M03, 2 mg/kg): 8.13 ng/mL and 3.38 ng/mL and 4.42 ng/mL
concentrations (mouse (CD1) iv 2 mg/kg, 24.0 h, individual M01-M03, 2 mg/kg): BQL
AUCExtra [4]: 2.97%
AUMCExtra [4]: 29.9%
AUCExtra [5]: 2.57% and 3.55% and 2.80%
AUMCExtra [5]: 33.8% and 34.9% and 20.8%
C0 [5]: 3910 ng/mL and 1412 ng/mL and 1145 ng/mL
MRT0-inf [5]: 2.63 h and 0.916 h and 1.08 h
MRT0-last [5]: 1.79 h and 0.618 h and 0.882 h
T1/2 [5]: 7.43 h and 2.09 h and 1.43 h
Tlast [5]: 24.0 h and 6.00 h (2×)
Vdss [5]: 6.36 L/kg and 6.67 L/kg
concentrations (mouse (CD1) po 30 mg/kg, 0.500 h, individual M04-M06): BQL
concentrations (mouse (CD1) po 30 mg/kg, 1.00 h, individual M04-M06): BQL
concentrations (mouse (CD1) po 30 mg/kg, 2.00 h, individual M04-M06): BQL
concentrations (mouse (CD1) po 30 mg/kg, 4.00 h, individual M04-M06): BQL
concentrations (mouse (CD1) po 30 mg/kg, 6.00 h, individual M04-M06): BQL
concentrations (mouse (CD1) po 30 mg/kg, 24.0 h, individual M04-M06): BQL
concentrations (mouse (CD1) sc 30 mg/kg, 0.500 h, Mean SC): 1.81 ng/mL
concentrations (mouse (CD1) sc 30 mg/kg, 0.500 h, individual M07-M09, 30 mg/kg): 1.29 ng/mL and 2.28 ng/mL and 1.85 ng/mL
concentrations (mouse (CD1) sc 30 mg/kg, 1.00 h, Mean SC): 2 ng/mL
concentrations (mouse (CD1) sc 30 mg/kg, 1.00 h, individual M07-M09, 30 mg/kg): 1.87 ng/mL and 2.51 ng/mL and 1.61 ng/mL
concentrations (mouse (CD1) sc 30 mg/kg, 2.00 h, Mean SC): 2.88 ng/mL
concentrations (mouse (CD1) sc 30 mg/kg, 2.00 h, individual M07-M09, 30 mg/kg): 2.21 ng/mL and 4.61 ng/mL and 1.82 ng/mL
concentrations (mouse (CD1) sc 30 mg/kg, 4.00 h, Mean SC): 1.59 ng/mL
concentrations (mouse (CD1) sc 30 mg/kg, 4.00 h, individual M07-M09, 30 mg/kg): 1.01 ng/mL and 1.86 ng/mL and 1.9 ng/mL
concentrations (mouse (CD1) sc 30 mg/kg, 6.00 h, Mean SC): 1.8 ng/mL
concentrations (mouse (CD1) sc 30 mg/kg, 6.00 h, individual M07-M09, 30 mg/kg): 1.41 ng/mL and 2.82 ng/mL and 1.18 ng/mL
concentrations (mouse (CD1) sc 30 mg/kg, 24.0 h, Mean SC): 1.38 ng/mL
concentrations (mouse (CD1) sc 30 mg/kg, 24.0 h, individual M07-M09, 30 mg/kg): 1.3 ng/mL and 1.58 ng/mL and 1.26 ng/mL
Tlast (mouse (CD1) sc 30 mg/kg, Mean SC): 24.0 h
AUCExtra [6]: 62.1%
AUMCExtra [6]: 92.4%
Tlast [6]: 24.0 h
AUC0-last [7]: 54.5 ng·h/mL and 31.7 ng·h/mL
Cmax [7]: 2.21 ng/mL and 4.61 ng/mL and 1.90 ng/mL
MRT0-last [7]: 10.9 h and 11.4 h
Tmax [7]: 4.00 h
SMILES: NC(=O)c1nn(-c2ccc(C(=O)NCCOCCOCCNc3cccc4c3C(=O)N(C3CCC(=O)NC3=O)C4=O)cc2)cc1NC(=O)c1coc(-c2ccnc(NCC(F)(F)F)c2)n1 (stereo not shown) [I-127, N-[3-carbamoyl-1-[4-[2-[2-[2-[[2-(2,6-dioxo-3-piperidyl)-1,3-dioxo-isoindolin-4-yl]amino]ethoxy]ethoxy]ethylcarbamoyl]phenyl]pyrazol-4-yl]-2-[2-(2,2,2-trifluoroethylamino)-4-pyridyl]oxazole-4-carboxamide]
AUC0-last [5]: 896 ng·h/mL and 278 ng·h/mL and 316 ng·h/mL
AUC(0-inf) [5]: 919 ng·h/mL and 288 ng·h/mL and 325 ng·h/mL
Cl [5]: 36.3 mL/min/kg and 116 mL/min/kg and 103 mL/min/kg
